Activity calls are given as the source filed them. The calls are words filed in the database; no cut-off is given here.
Experiments:
[1] = tested on: SH-SY5Y; test: Cytotoxicity against human SH-SY5Y cells assessed as decrease in neutral red dye uptake at 25 uM incubated for 24 hrs relative to control; assay type: toxicity, cell-based; design: scale not given: the % may be the effect or the level left
[2] = tested on: SH-SY5Y; test: Neuroprotective effect in Fe3+-induced cytotoxicity in human SH-SY5Y cells assessed as increase in neutral red dye uptake at 1 uM preincubated with 500 uM FeNTA for 30 mins followed by compound treatment for 24 hrs (reference value: 81.4 %); assay type: functional; conditions: time 24.5 hrs
[3] = tested on: SH-SY5Y; test: Neuroprotective effect in MPP+-induced cytotoxicity in human SH-SY5Y cells assessed as increase in neutral red dye uptake at 5 uM preincubated with 500 uM MPP+ for 30 mins followed by compound treatment for 24 hrs (reference value: 83.3 %); assay type: functional; conditions: time 24.5 hrs
[4] = tested on: SH-SY5Y; test: Neuroprotective effect in MPP+-induced cytotoxicity in human SH-SY5Y cells assessed as increase in neutral red dye uptake at 1 uM preincubated with 500 uM MPP+ for 30 mins followed by compound treatment for 24 hrs (reference value: 83.3 %); assay type: functional; conditions: time 24.5 hrs
[5] = tested on: SH-SY5Y; test: Neuroprotective effect in MPP+-induced cytotoxicity in human SH-SY5Y cells assessed as increase in neutral red dye uptake at 1 uM preincubated with 1000 uM MPP+ for 30 mins followed by compound treatment for 24 hrs (reference value: 75.8 %); assay type: functional; conditions: time 24.5 hrs
[6] = tested on: SH-SY5Y; test: Cytotoxicity against human SH-SY5Y cells assessed as decrease in resazurin dye at 25 uM incubated for 24 hrs relative to control; assay type: toxicity, cell-based; design: scale not given: the % may be the effect or the level left
[7] = tested on: SH-SY5Y; test: Neuroprotective effect in MPP+-induced cytotoxicity in human SH-SY5Y cells assessed as increase in neutral red dye uptake at 5 uM preincubated with 1000 uM MPP+ for 30 mins followed by compound treatment for 24 hrs (reference value: 75.8 %); assay type: functional; conditions: time 24.5 hrs
[8] = tested on: SH-SY5Y; test: Cytotoxicity against human SH-SY5Y cells at 5 uM incubated for 24 hrs; assay type: toxicity, cell-based
[9] = tested on: SH-SY5Y; test: Neuroprotective effect in MPP+-induced cytotoxicity in human SH-SY5Y cells assessed as increase in neutral red dye uptake at 2.5 uM preincubated with 500 uM MPP+ for 30 mins followed by compound treatment for 24 hrs (reference value: 83.3 %); assay type: functional; conditions: time 24.5 hrs
[10] = tested on: SH-SY5Y; test: Cytotoxicity against human SH-SY5Y cells assessed as decrease in resazurin dye at 50 uM incubated for 24 hrs relative to control; assay type: toxicity, cell-based; design: scale not given: the % may be the effect or the level left
[11] = tested on: SH-SY5Y; test: Neuroprotective effect in MPP+-induced cytotoxicity in human SH-SY5Y cells assessed as increase in neutral red dye uptake at 2.5 uM preincubated with 1000 uM MPP+ for 30 mins followed by compound treatment for 24 hrs (reference value: 75.8 %); assay type: functional; conditions: time 24.5 hrs
[12] = tested on: SH-SY5Y; test: Cytotoxicity against human SH-SY5Y cells assessed as decrease in neutral red dye uptake at 10 uM incubated for 24 hrs relative to control; assay type: toxicity, cell-based; design: scale not given: the % may be the effect or the level left
[13] = tested on: SH-SY5Y; test: Cytotoxicity against human SH-SY5Y cells assessed as decrease in neutral red dye uptake at 50 uM incubated for 24 hrs relative to control; assay type: toxicity, cell-based; design: scale not given: the % may be the effect or the level left
[14] = tested on: SH-SY5Y; test: Neuroprotective effect in MPP+-induced cytotoxicity in human SH-SY5Y cells assessed as increase in neutral red dye uptake at 1 to 10 uM preincubated with 500 uM MPP+ for 30 mins followed by compound treatment for 24 hrs; assay type: functional, cell-based; conditions: dose 1-10 µM, time 24.5 hrs
[15] = tested on: SH-SY5Y; test: Cytotoxicity against human SH-SY5Y cells assessed as decrease in neutral red dye uptake upto 50 uM incubated for 24 hrs; assay type: toxicity, cell-based
[16] = tested on: SH-SY5Y; test: Cytotoxicity against human SH-SY5Y cells upto 10 uM incubated for 24 hrs; assay type: toxicity, cell-based
[17] = tested on: SH-SY5Y; test: Neuroprotective effect in MPP+-induced cytotoxicity in human SH-SY5Y cells assessed as increase in neutral red dye uptake at 1 uM preincubated with 500 uM MPP+ for 30 mins followed by compound treatment for 24 hrs (reference value: 81.1 %); assay type: functional; conditions: time 24.5 hrs
[18] = tested on: SH-SY5Y; test: Neuroprotective effect in MPP+-induced cytotoxicity in human SH-SY5Y cells assessed as increase in neutral red dye uptake at 2.5 uM preincubated with 500 uM MPP+ for 30 mins followed by compound treatment for 24 hrs (reference value: 81.1 %); assay type: functional; conditions: time 24.5 hrs
[19] = tested on: SH-SY5Y; test: Neuroprotective effect in Fe3+-induced cytotoxicity in human SH-SY5Y cells assessed as increase in neutral red dye uptake at 1 to 10 uM preincubated with 500 to 1000 uM FeNTA for 30 mins followed by compound treatment for 24 hrs; assay type: functional, cell-based; conditions: dose 1-10 µM, time 24.5 hrs
[20] = tested on: SH-SY5Y; test: Neuroprotective effect in MPP+-induced cytotoxicity in human SH-SY5Y cells assessed as increase in neutral red dye uptake at 1 uM preincubated with 500 uM MPP+ for 30 mins followed by compound treatment for 24 hrs (reference value: 75 %); assay type: functional; conditions: time 24.5 hrs
[21] = tested on: SH-SY5Y; test: Neuroprotective effect in MPP+-induced cytotoxicity in human SH-SY5Y cells assessed as increase in neutral red dye uptake at 5 uM preincubated with 500 uM MPP+ for 30 mins followed by compound treatment for 24 hrs (reference value: 81.1 %); assay type: functional; conditions: time 24.5 hrs
[22] = tested on: SH-SY5Y; test: Neuroprotective effect in MPP+-induced cytotoxicity in human SH-SY5Y cells assessed as increase in neutral red dye uptake at 2.5 uM preincubated with 500 uM MPP+ for 30 mins followed by compound treatment for 24 hrs (reference value: 75 %); assay type: functional; conditions: time 24.5 hrs
[23] = tested on: SH-SY5Y; test: Cytotoxicity against human SH-SY5Y cells assessed as decrease in resazurin dye upto 50 uM incubated for 24 hrs; assay type: toxicity, cell-based
[24] = tested on: SH-SY5Y; test: Induction of ROS production in human SH-SY5Y cells at 50 uM incubated for 24 hrs by DCFH-DA probe based analysis relative to control; assay type: functional
[25] = tested on: SH-SY5Y; test: Neuroprotective effect in MPP+-induced cytotoxicity in human SH-SY5Y cells assessed as increase in neutral red dye uptake at 5 uM preincubated with 1000 uM MPP+ for 30 mins followed by compound treatment for 24 hrs (reference value: 76.2 %); assay type: functional; conditions: time 24.5 hrs
[26] = tested on: SH-SY5Y; test: Neuroprotective effect in Fe3+-induced cytotoxicity in human SH-SY5Y cells assessed as increase in neutral red dye uptake at 2.5 to 5 uM preincubated with 1000 uM FeNTA for 30 mins followed by compound treatment for 24 hrs; assay type: functional, cell-based; conditions: dose 2.5-5 µM, time 24.5 hrs
[27] = tested on: SH-SY5Y; test: Neuroprotective effect in MPP+-induced cytotoxicity in human SH-SY5Y cells assessed as increase in neutral red dye uptake at 1 uM preincubated with 1000 uM MPP+ for 30 mins followed by compound treatment for 24 hrs (reference value: 76.2 %); assay type: functional; conditions: time 24.5 hrs
[28] = tested on: SH-SY5Y; test: Cytotoxicity against human SH-SY5Y cells assessed as decrease in resazurin dye at 10 uM incubated for 24 hrs relative to control; assay type: toxicity, cell-based; design: scale not given: the % may be the effect or the level left
[29] = tested on: SH-SY5Y; test: Neuroprotective effect in MPP+-induced cytotoxicity in human SH-SY5Y cells assessed as increase in neutral red dye uptake at 2.5 uM preincubated with 500 uM MPP+ for 30 mins followed by compound treatment for 24 hrs (reference value: 83.9 %); assay type: functional; conditions: time 24.5 hrs
[30] = tested on: SH-SY5Y; test: Neuroprotective effect in MPP+-induced cytotoxicity in human SH-SY5Y cells assessed as increase in neutral red dye uptake at 2.5 uM preincubated with 1000 uM MPP+ for 30 mins followed by compound treatment for 24 hrs (reference value: 76.2 %); assay type: functional; conditions: time 24.5 hrs

Q: With `c1ccc(Cn2nnnc2-c2cc3c([nH]c4ccccc43)c(-c3ccccc3)n2)cc1` as the compound, how does the Activity [1] read?
A: 81.3%

Q: What about the Activity [2] of the same compound?
A: 87.6%

Q: And the Activity [3]?
A: 93.5%

Q: And the Activity [4]?
A: 91.4%

Q: What about the Activity [5] of the same compound?
A: 87.1%

Q: And the Activity [6]?
A: 74%

Q: And the Activity [7]?
A: 89.1%

Q: And the Activity [8]?
A: Non-Toxic

Q: And the Activity [9]?
A: 92.1%

Q: What about the Activity [10] of the same compound?
A: 59.3%

Q: What about the Activity [11] of the same compound?
A: 84.6%

Q: And the Activity [12]?
A: 85.6%

Q: What about the Activity [13] of the same compound?
A: 65.9%

Q: With `O=[N+]([O-])c1cccc(-c2nc(-c3nnnn3Cc3ccccc3)cc3c2[nH]c2ccccc23)c1` as the compound, how does the Activity [14] read?
A: inactive

Q: What about the Activity [15] of the same compound?
A: Non-Toxic

Q: What about the Activity [16] of the same compound?
A: Non-Toxic

Q: And the Activity [10]?
A: 92.6%

Q: Which Activity [17] does the source give for `CN(C)c1ccc(-c2nc(-c3nnnn3Cc3ccccc3)cc3c2[nH]c2ccccc23)cc1` here?
A: 97.8%

Q: And the Activity [18]?
A: 92.3%

Q: And the Activity [19]?
A: inactive

Q: What about the Activity [20] of the same compound?
A: 90.3%

Q: And the Activity [21]?
A: 85.8%

Q: What about the Activity [16] of the same compound?
A: Non-Toxic

Q: And the Activity [22]?
A: 83.6%

Q: What about the Activity [13] of the same compound?
A: 80.5%

Q: What does the source list for `Clc1ccccc1-c1nc(-c2nnnn2Cc2ccccc2)cc2c1[nH]c1ccccc12`?
A: Activity [1]: 84%; Activity [23]: Non-Toxic; Activity [14]: Active; Activity [16]: Non-Toxic; Activity [13]: 81.7%

Q: Which results are given for `Fc1ccc(-c2nc(-c3nnnn3Cc3ccccc3)cc3c2[nH]c2ccccc23)cc1`?
A: Activity [1]: 70.5%; Activity [24]: 108.2%; Activity [25]: 83.2%; Activity [26]: Active; Activity [6]: 62.2%; Activity [8]: Non-Toxic; Activity [10]: 48.5%; Activity [27]: 84.8%; Activity [12]: 83.6%; Activity [28]: 80%; Activity [29]: 91.4%; Activity [13]: 56.1%; Activity [30]: 83.4%

From ChEMBL document CHEMBL6127023, “3-Tetrazolyl-β-carboline derivatives as potential neuroprotective agents” (Bioorg Med Chem, 2024)
